Experimental findings from a melting point compilation (Tetko et al.; mined from patent text by program, amines drawn as free bases though some values may be those of a salt) are described below.

`N#CNc1ncc(-c2ccncc2)cn1` returned a melting point greater than 300 °C. The value for `CCCCNNc1nc(C)c(C(=O)OCC)c(Cl)c1[N+](=O)[O-]` was 59 to 61 °C. The figure for `C[C@H](NC(=O)c1c[nH]c2ncc(-c3cnn(C)c3)nc12)C(C)(C)C` is 296 to 297 °C. Compound `NC(=O)c1cnn2c1NCC=C2c1cccnc1` had a melting point of 182 to 184 °C.

Compound `COC(=O)NNC(=S)Cc1ccc2ccccc2c1` came in with a melting point of 129 to 131 °C. The figure for `OC1(c2ccc(F)cc2)CCC2CN(Cc3ccccc3)CCC2C1` (configuration not stated) is 120 to 122 °C; for `CSc1ccc(C(=O)c2c(C)c(C(=O)O)c3n2CCC3C(=O)O)n1C` (configuration not stated) it is 212 to 213 °C.

The compound `Cn1ncc2[nH]c3ccc(Cc4ccc(C#N)cc4)cc3c(=O)c21` showed a melting point of 291 °C. `O=C1c2ccccc2C(=O)c2c1cc(CO)c1c2CCC1` gave a melting point of 191 to 192 °C.

`COC(=O)[C@@H]1OCN(NS(=O)(=O)c2ccc([N+](=O)[O-])cc2)[C@H]1c1ccccc1` showed a melting point of 160 to 162 °C.

Regarding `O=C(c1ccccc1)C1CCN1C(c1ccccc1)c1ccccc1` (configuration not stated), the melting point was 114 to 115 °C. The value for `O=S(=O)(c1ccc2nccnc2c1)c1cccc2cnccc12` was 187 to 189 °C; that for `CC(C)C/C=C\CCCCCCCCCC(=O)O` was 12.5 °C; that for `COc1noc2c(C)cc(C#CCCN3CCOC3=O)cc12` was 94 to 95 °C.

Regarding `COC(=O)Cc1ccc2c(c1)C(=O)c1sccc1CO2`, the melting point fell in the range of 80 to 81 °C. `NC(=O)C1=NN(c2cccc(COCC(F)(F)C(F)(F)F)c2)C(c2ccccc2F)N1` (configuration not stated) returned a melting point of 151 to 153 °C. The value for `CCCCCCCCCCCCCCC(=O)NCCCN(C)C` was 46 to 48 °C; that for `N#Cc1c[nH]cc1-c1ccc(Cl)cc1C(=O)c1ccccc1Cl` was 182 to 184 °C. The value for `CN1C(=O)C2C3CCC(C3)C2(c2cccc(Br)c2)C1=O` (configuration not stated) was 105 to 107 °C; that for `N#Cc1cc(N2CCCCC2)ccc1[N+](=O)[O-]` was 126 to 127 °C. Regarding `Cc1c(Cc2ccc(F)cc2)c(=O)oc2cc(OC(=O)N(C)c3ccccc3)ccc12`, the melting point lay within 185 to 186 °C. On to `CN(CCNC(=O)NCCCOc1cccc(CN2CCCCC2)c1)CCN(Cc1ccc(F)cc1)c1ccccn1`, for which the melting point is 68 °C. In turn, `N#CC1=C(n2cccc2)Oc2c(ccc3ccccc23)C1c1cccc([N+](=O)[O-])c1` (configuration not stated) displayed a melting point of 184 to 185 °C. In turn, `CCCCCCCCCCCCCCCCCC(O)c1ccc(O)c(C(=O)O)c1` (configuration not stated) had a melting point of 102 °C. The value for `Cc1ccc(NCCN(C)C)c([N+](=O)[O-])c1` was 59 °C; that for `CCC(=O)N1CCC(NC(=O)Nc2cccc(C(F)(F)F)c2)CC1` was 153 to 154 °C; that for `O=CN1CCC(C(c2ccccc2)c2ccccc2)CC1` was 172 to 174 °C.

`O=C1COc2cccc3nc4c(c(c23)N1)CCCC4` displayed a melting point of 201 to 202 °C. In the case of `COc1ccc(Oc2cc(N)c(F)cc2C#N)cc1`, the melting point amounted to 135 °C. Consider `O=C1Nc2ccc(Cl)cc2C1(O)c1ccccc1C(F)(F)F` (configuration not stated), for which the melting point fell in the range of 205 to 208 °C. The figure for `CN(C)Cc1ccc(C=CC(=O)N2CCc3c([nH]c4ccccc34)C2c2ccc3c(c2)CCO3)cn1` (configuration not stated) is 163 °C. The figure for `CCC(=O)NC[C@H]1CN(c2ccc(C3C=CS(=O)(=O)CC3)cc2)C(=O)O1` (some centres not stated) is 144 to 147 °C. Regarding `Cc1nc2sc(S(=O)(=O)Cl)cc2c(=O)n1-c1ccccc1Cl`, the melting point lay in the range of 172 to 174 °C. The value for `CN1C(=O)C(C(=O)Nc2ccc(Cl)cc2Oc2c(Cl)cccc2Cl)C(=O)N(C)C1=S` was 254 to 257 °C; that for `O=[N+]([O-])c1cccnc1Cc1ccccc1` was 72 °C; that for `O=C(C=Cc1ccccc1)c1cccc(O)c1` was 143 to 147 °C.

As to `CCCc1nn(-c2ccc(C(F)(F)F)cn2)cc1CCCCn1cc(CCC(=O)O)c(-c2ccc(F)cc2)n1`, the melting point is 119 to 121 °C. The value for `Cc1cc(C)c2nc(CO)[nH]c2n1` was 244 to 246 °C; that for `O=C(C=Cc1ccc2c(c1)OCO2)C1CC1` was 85 to 87 °C. For `Cc1nc(Oc2ccccc2)c2nc(C)n(CCNC(=O)OC(C)(C)C)c2c1C`, the melting point is 180 to 182 °C. The value for `CCOC(=O)C(C)Oc1cc(F)ccc1[N+](=O)[O-]` (configuration not stated) was 64 to 65 °C; that for `CN1CCc2c(Cl)ccc3c4c(n(c23)CC1)CCC4` was 138 to 140 °C; that for `COc1cc(Cl)c2[nH]c(=O)[nH]c(=O)c2c1OC` was 282 to 284 °C. The value for `COc1ccc(C(C#N)CNC(=O)C(N)=O)cc1OC1CCCC1` (configuration not stated) was 176 to 177 °C; that for `Cc1ccc(Oc2ccc(OC(=O)NC(C)CCCC(C)C)cc2)cc1` (configuration not stated) was 45 to 47 °C; that for `CC(C)[C@H](NC(=O)[C@H](Cc1ccccc1)NC(=O)OCc1ccccc1)[C@@H](O)c1c(-c2ccccc2)c1=O` was 175 to 177 °C.

On to `CCC(=NNC(=O)c1ccccc1)c1ccncc1`, for which the melting point was 178 °C.

Turning to `CCCCC(=O)OC1C=CC(OC(=O)CCCC)O1` (configuration not stated), the melting point was 30 to 35 °C. The figure for `CCCCc1nn(-c2ccc(C(F)(F)F)cn2)cc1CCCOc1nn(C)cc1CC(=O)O` is 125 to 126 °C; for `CN(C)S(=O)(=O)c1cn(C)c2cc(Cl)ccc2c1=O` it is 207 to 209 °C. As to `COc1cccc(NC(=O)c2cccc([N+](=O)[O-])c2)c1`, the melting point was in the range of 120 to 122 °C. On to `N#CC(N=Cc1ccc([N+](=O)[O-])cc1)=C(Cl)Cl`, for which the melting point lay within 171 to 174 °C. In turn, `C=C(CCC)C(=O)c1ccc(OCCCC(=O)O)c(Cl)c1Cl` gave a melting point of 85 to 87 °C.

`CS(=O)(=O)c1ccc(-c2cnn(-c3ccc(F)c(F)c3)c(=O)c2C2CCCCC2)cc1` showed a melting point of 80 to 83 °C. The figure for `O=C1C=CC(O)(c2cc3ccccc3o2)c2ccccc21` (configuration not stated) is 105 to 107 °C. Regarding `C[C@H](C(=O)N[C@@H](COC(=O)C(C)(C)C)Cc1ccccc1)c1ccc(NS(C)(=O)=O)c(F)c1`, the melting point lay in the range of 117 to 119 °C. The value for `CCCCCCCCCCCCn1nnc(C(C(=O)Nc2c(C(C)C)cccc2C(C)C)(c2ccccc2)c2ccccc2)n1` was 154 to 156 °C.

`O=[N+]([O-])c1ccc2c(c1)COCC2` came in with a melting point of 96 to 98 °C. The figure for `Cc1occc1COC(C)CN(O)C(N)=O` (configuration not stated) is 101 to 102 °C. On to `COCCCn1c(=O)[nH]c2ncc(-c3ccc(O)cc3)nc21`, for which the melting point fell in the range of 208 to 210 °C. Compound `c1ccc(CN2CCN(Cc3n[nH]c4ccccc34)CC2)cc1` came in with a melting point of 130 to 131 °C. The figure for `N#CCCNC1CCCC1` is 81 to 84 °C; for `COc1ccc(-c2cc3ccccc3[nH]2)cc1NC(=S)Nc1cccc(CC(=O)O)c1` it is 174 to 175 °C; for `O=c1cc(O)c2cccnc2n1Cc1ccccc1` it is 250 to 253 °C.

Turning to `CC1(C)N=C(O)N=C(NC(=O)c2nc(Cl)c(N)nc2N)N1`, the melting point was 266 to 268 °C. The figure for `CC(C)(C)Cc1ccc(C(=O)O)cc1` is 191 to 193 °C; for `COC1(c2ccccc2)CCc2c(C(=O)N3CCC3)cc3c(nc(C)n3C)c2O1` (configuration not stated) it is 147 to 150 °C; for `CCCOc1ccccc1-c1nc2nc(N(CC)CCO)ncc2c(=O)[nH]1` it is 141 to 142 °C. Turning to `O=C(CC1CCCCC1=O)c1ccc(-c2ccccc2)cc1` (configuration not stated), the melting point lay within 108 to 112 °C.

The compound `Cc1noc(NS(=O)(=O)c2sccc2-c2ccc3c(c2)OCO3)c1Br` gave a melting point of 183 to 186 °C.

In turn, `O=C(O)c1cccc(-c2ccnc3cc(Cc4cccc(C(F)(F)F)c4)nn23)c1` had a melting point of 111 to 145 °C. The value for `COC(=O)C(CNC(=O)Cc1ccc(OC)c(OC)c1)c1ccc(OC)c(OC)c1` (configuration not stated) was 92 to 93 °C; that for `O=C(c1ccc(C2=CCCc3ccccc32)cc1)N1Cc2cccn2Cc2ccccc21` was 81 °C. The value for `Cc1nc(N2CCN(C)CC2)ccc1N1CCCn2c1nc1c(Cl)ccc(C(OC(F)F)C(F)(F)F)c12` (configuration not stated) was 193 to 195 °C; that for `N#CC(=CNc1ccccc1)Cc1ccc2ccccc2c1` was 148 to 153 °C. The value for `CCOC(=O)Cc1sc(NC(C)=O)nc1-c1ccc(Cl)cc1` was 187 to 188 °C; that for `CC1=C(Nc2ccc(C3=NNC(=O)CC3)cc2)CCC1=O` was 284 to 285 °C; that for `COc1ccc2c(c1)CCC1C2CCC2(C)C(NCc3ccc(O)c(OC)c3)CCC12` (configuration not stated) was 169 to 170 °C. `CCOc1nc(N)nc(N2CCc3ccccc3CC2)c1C#N` registered a melting point of 195 to 203 °C. The value for `COc1ccc2c(N3CCCNCC3)noc2c1` was 74 to 75 °C; that for `Cn1c(C(N)=O)c2n(c1=O)-c1ccc(Cl)cc1C(c1ccccc1Cl)=NC2` was 158 to 160 °C. As for `CC(C)c1ccc2nc3ccc(C(=O)NCCc4cccnc4)cn3c(=O)c2c1`, the melting point lay within 283 to 292 °C. The value for `C[C@@H]1Cc2ccsc2[C@H](C)N1CCNC(=O)c1ccc(NC(=O)C(C)(C)C)cc1` (relative stereo) was 133 °C. `Cc1ccc(-c2c(C=O)n(C)c(=O)c3ncccc23)cc1`: the melting point is 282 to 284 °C. The value for `CN1CCCC1=NC(=O)Nc1ccc(C(F)(F)F)cc1` was 128 to 131 °C; that for `CC(C)Nc1ncc2ccc(=O)n(C)c2n1` was 148 to 149 °C; that for `O=C(O)CCC(CS(=O)(=O)c1ccc2ccccc2c1)C(=O)N(CCC1CCCCC1)CCC1CCCCC1` (configuration not stated) was 138 to 140 °C. `CCC1C(=O)N2CCCC(C(=O)OC(C)(C)C)N2C1=O` (configuration not stated) returned a melting point of 93 to 95 °C. The figure for `O=c1oc2cc(O)c(O)cc2c(O)c1C1=CCOc2oc3ccccc3c(=O)c21` is 258 to 260 °C; for `Cc1ccc2c(=O)[nH]sc2n1` it is 187 to 190 °C; for `N#Cc1cccc(Br)c1CBr` it is 90 to 93 °C. The value for `CCn1ccc(C(=O)c2cc(C(C)(C)C)c(O)c(C(C)(C)C)c2)c1` was 73 to 75 °C.

In general, melting point refers to the temperature, or range, at which the solid turns liquid.
